Laboratory results taken from patent publication US7384927B2, “Alkylated porphyrins as pesticides acting both in the presence and absence of light” (priority 2003, dated 2008).

How the values were obtained:
Format in all cases: in vivo
Ceratitis capitata flies [1] = experiment: Insecticidal action in the dark: fly survival after porphyrin bait; settings: dark, fed 24 h, survival 12 h after change to porphyrin-free bait
In short: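 Flies fed porphyrin-containing bait, then switched to porphyrin-free bait; survivors counted 12 h after the switch, in darkness. Control flies received bait without porphyrin (0 μM).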

Ceratitis capitata flies [2] = experiment: Photoinsecticidal action: fly survival after bait and visible light irradiation (artificial lamp); settings: for Survival (% of control untreated flies): survival 10 h after irradiation
In short: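 Medflies (1 week old, 50 per cage) starved 36 h, then fed 10% sucrose/1% autolysed yeast bait with or without porphyrin. Irradiated 1 h with filtered halogen lamp (360–850 nm) at 1220 μE s^−1m^−2; survival scored 10 h after irradiation, controls given porphyrin-free bait.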

Ceratitis capitata flies [3] = experiment: Photoinsecticidal action: fly survival after bait and sunlight irradiation; settings: 3 μM in bait, 12 h after feeding, survival 1 h after irradiation
[4] = test system: Stomoxis calcitrans (stable fly); experiment: Uptake of alkylated porphyrins by flies fed porphyrin-containing bait; settings: S. calcitrans
Description: (§1) Porphyrins: • a) meso[tri(N-methyl-pyridyl), mono(N-dodecyl-pyridyl)]porphine (abbr.: C12) • b) meso[tri(N-methyl-pyridyl), mono(N-tetradecyl-pyridyl)]porphine (abbr.: C14) • c) meso[tri(N-methyl-pyridyl), mono(N-octadecyl-pyridyl)]porphine (abbr.: C18) Bait: Aqueous solution containing 10% sucrose and 1% autolysed yeast Flies: • a) Ceratitis capitata (fruit fly) age: 1 week; weight: 5-6 mg • b) Bactrocera oleae (olive fly) age: 10 days; weight: 4-4.5 mg • c) Stomoxis calcitrans (stable fly) age: 10 days; weight: 12 mg Irradiation: • a) High pressure halogen lamp, equipped with infrared and UV filters, emission 360-850 nm, operated at intensities in the 760-2,000 μE s^−1m^−2 range • b) Sunlight, mid June at Padua latitude, average intensity of […] μE s^−1m^−2 with minimum and maximum values of 950 and, respectively, 1,380 μE s^−1m^−2
(§2) An appropriate number of flies (50 flies per each experiment) was caged in 115×55×70 mm Plexiglas cages with several holes (ø=0.5 mm) and starved for 36 h. Then, depending on the protocol to be adopted for each specific experiment, the flies were fed with the bait (10% sucrose and 1% autolysed yeast in neutral aqueous solution), which was either porphyrin-free or added with a predetermined concentration of the porphyrin. These flies were then used in the various experimental sessions.
(§3) At predetermined times, the flies were sacrificed by freezing; the dead flies were then homogenized with a Polytron in 10 ml of a 2% aqueous solution of sodium dodecylsulphate (SDS). The suspension was centrifuged for 10 min at 2,000 rpm, the pellet was discarded and known aliquots of the supernatant were diluted by means of a chloroform/methanol binary mixture (1/2, v/v). The porphyrin concentration was measured by reading the fluorescence emitted at wavelengths above 630 nm and interpolating the emission intensity with a calibration plot obtained with known amounts of the porphyrin. The results were expressed as nanomoles of porphyrin recovered per fly.

[5] = test system: Ceratitis capitata (fruit fly); experiment: as above; settings: C. capitata
Description: as §1, §2, §3

[6] = test system: Bactrocera oleae (olive fly); experiment: as above; settings: B. oleae
Description: as §1, §2, §3

[7] = test system: Stomoxis calcitrans (stable fly); experiment: Release of alkylated porphyrin from flies after feeding with bait interrupted; settings: S. calcitrans, 1.25 μM porphyrin in the bait
Description: as §2, §3

[8] = test system: Ceratitis capitata (fruit fly); experiment: as above; settings: C. capitata, 1.25 μM porphyrin in the bait
Description: as §2, §3

[9] = test system: Bactrocera oleae (olive fly); experiment: as above; settings: B. oleae, 1.25 μM porphyrin in the bait
Description: as §2, §3

[10] = exposure time to bait 3 h, porphyrin in bait 1.24 μM
[11] = exposure time to bait 12 h, porphyrin in bait 1.24 μM
[12] = exposure time to bait 24 h, porphyrin in bait 1.24 μM
[13] = porphyrin concentration in bait 0.75 (μmoles), feeding 24 h
[14] = porphyrin concentration in bait 1.25 (μmoles), feeding 24 h
[15] = porphyrin concentration in bait 2.10 (μmoles), feeding 24 h
[16] = porphyrin concentration in bait 3.50 (μmoles), feeding 24 h
[17] = porphyrin concentration in bait 6.00 (μmoles), feeding 24 h

CCCCCCCCCCCCCC[n+]1ccc(-c2c3nc(c(-c4cc[n+](C)cc4)c4ccc([nH]4)c(-c4cc[n+](C)cc4)c4nc(c(-c5cc[n+](C)cc5)c5ccc2[nH]5)C=C4)C=C3)cc1 [C14, meso[tri(N-methyl-pyridyl), mono(N-tetradecyl-pyridyl)]porphine]
Survival (% of control untreated flies) (Ceratitis capitata flies [1]; 0.75 μM in bait): 100 % of control untreated flies
Survival (% of control untreated flies) (Ceratitis capitata flies [1]; 1.25 μM in bait): 51 % of control untreated flies
Survival (% of control untreated flies) (Ceratitis capitata flies [1]; 2.10 μM in bait): 38 % of control untreated flies
Survival (% of control untreated flies) (Ceratitis capitata flies [1]; 3.00 μM in bait): 21 % of control untreated flies
Survival (% of control untreated flies) (Ceratitis capitata flies [1]; 5.00 μM in bait): 14 % of control untreated flies
Survival (% of control untreated flies) (Ceratitis capitata flies [1]; 8.10 μM in bait): 9 % of control untreated flies
Survival (% of control untreated flies) (Ceratitis capitata flies [2]; 3 μM in bait 24 h, time interval feeding-irradiation 0 h, irradiation 1 h at 1220 μE s^−1m^−2): 0 % of control untreated flies
Survival (% of control untreated flies) (Ceratitis capitata flies [2]; 3 μM in bait 24 h, time interval feeding-irradiation 12 h, irradiation 1 h at 1220 μE s^−1m^−2): 0 % of control untreated flies
Survival (% of control untreated flies) (Ceratitis capitata flies [2]; 3 μM in bait 24 h, time interval feeding-irradiation 24 h, irradiation 1 h at 1220 μE s^−1m^−2): 10 % of control untreated flies
Survival (% of control untreated flies) (Ceratitis capitata flies [2]; 3 μM in bait 24 h, time interval feeding-irradiation 48 h, irradiation 1 h at 1220 μE s^−1m^−2): 21 % of control untreated flies
Survival (% of control untreated flies) (Ceratitis capitata flies [2]; 3 μM in bait, fluence-rate 760 μE s^−1m^−2, irradiated 24 h after feeding (title)): 10 % of control untreated flies
Survival (% of control untreated flies) (Ceratitis capitata flies [2]; 3 μM in bait, fluence-rate 1220 μE s^−1m^−2, irradiated 24 h after feeding (title)): 0 % of control untreated flies
Survival (% of control untreated flies) (Ceratitis capitata flies [2]; 3 μM in bait, fluence-rate 1500 μE s^−1m^−2, irradiated 24 h after feeding (title)): 0 % of control untreated flies
Survival (% of control untreated flies) (Ceratitis capitata flies [2]; 3 μM in bait, fluence-rate 2000 μE s^−1m^−2, irradiated 24 h after feeding (title)): 0 % of control untreated flies
time by which essentially all flies died (Ceratitis capitata flies [2]; after 1 h illumination with artificial light or sunlight): ≤ 45 min
photoinsecticidal action compared among alkylated porphyrins (Ceratitis capitata flies [2]; irradiation with visible light or sunlight): most efficient insecticidal action
Survival (% of control untreated flies) (Ceratitis capitata flies [3]; sunlight (average 1150 μE s^−1m^−2) 15 min): 21 % of control untreated flies
Survival (% of control untreated flies) (Ceratitis capitata flies [3]; sunlight (average 1150 μE s^−1m^−2) 30 min): 10 % of control untreated flies
Survival (% of control untreated flies) (Ceratitis capitata flies [3]; sunlight (average 1150 μE s^−1m^−2) 45 min): 0 % of control untreated flies
Survival (% of control untreated flies) (Ceratitis capitata flies [3]; sunlight (average 1150 μE s^−1m^−2) 60 min): 0 % of control untreated flies
Recoveries (nmoles of porphyrin per fly) [4, 10]: 2.4 nmoles of porphyrin per fly
Recoveries (nmoles of porphyrin per fly) [4, 11]: 5.6 nmoles of porphyrin per fly
Recoveries (nmoles of porphyrin per fly) [4, 12]: 6.2 nmoles of porphyrin per fly
Recoveries (nmoles of porphyrin per fly) [4, 13]: 4.1 nmoles of porphyrin per fly
Recoveries (nmoles of porphyrin per fly) [4, 14]: 6.2 nmoles of porphyrin per fly
Recoveries (nmoles of porphyrin per fly) [4, 15]: 10.2 nmoles of porphyrin per fly
Recoveries (nmoles of porphyrin per fly) [4, 16]: 12.5 nmoles of porphyrin per fly
Recoveries (nmoles of porphyrin per fly) [4, 17]: 12.8 nmoles of porphyrin per fly
Recoveries (nmoles of porphyrin per fly) [5, 10]: 2.9 nmoles of porphyrin per fly
Recoveries (nmoles of porphyrin per fly) [5, 11]: 5.3 nmoles of porphyrin per fly
Recoveries (nmoles of porphyrin per fly) [5, 12]: 5.7 nmoles of porphyrin per fly
Recoveries (nmoles of porphyrin per fly) [5, 13]: 2.6 nmoles of porphyrin per fly
Recoveries (nmoles of porphyrin per fly) [5, 14]: 5.7 nmoles of porphyrin per fly
Recoveries (nmoles of porphyrin per fly) [5, 15]: 9.6 nmoles of porphyrin per fly
Recoveries (nmoles of porphyrin per fly) [5, 16]: 11.5 nmoles of porphyrin per fly
Recoveries (nmoles of porphyrin per fly) [5, 17]: 14.0 nmoles of porphyrin per fly
Recoveries (nmoles of porphyrin per fly) [6, 10]: 2.2 nmoles of porphyrin per fly
Recoveries (nmoles of porphyrin per fly) [6, 11]: 3.7 nmoles of porphyrin per fly
Recoveries (nmoles of porphyrin per fly) [6, 12]: 4.8 nmoles of porphyrin per fly
Recoveries (nmoles of porphyrin per fly) [6, 13]: 3.9 nmoles of porphyrin per fly
Recoveries (nmoles of porphyrin per fly) [6, 14]: 4.8 nmoles of porphyrin per fly
Recoveries (nmoles of porphyrin per fly) [6, 15]: 8.5 nmoles of porphyrin per fly
Recoveries (nmoles of porphyrin per fly) [6, 16]: 10.6 nmoles of porphyrin per fly
Recoveries (nmoles of porphyrin per fly) [6, 17]: 13.8 nmoles of porphyrin per fly
Recoveries (nmoles of porphyrin per fly), release ([7]; 12 h after feeding interrupted): 4.3 nmoles of porphyrin per fly
Recoveries (nmoles of porphyrin per fly), release ([7]; 24 h after feeding interrupted): 2.2 nmoles of porphyrin per fly
Recoveries (nmoles of porphyrin per fly), release ([7]; 48 h after feeding interrupted): 0.8 nmoles of porphyrin per fly
Recoveries (nmoles of porphyrin per fly), release ([8]; 12 h after feeding interrupted): 3.0 nmoles of porphyrin per fly
Recoveries (nmoles of porphyrin per fly), release ([8]; 24 h after feeding interrupted): 1.8 nmoles of porphyrin per fly
Recoveries (nmoles of porphyrin per fly), release ([8]; 48 h after feeding interrupted): 0.7 nmoles of porphyrin per fly
Recoveries (nmoles of porphyrin per fly), release ([9]; 12 h after feeding interrupted): 3.2 nmoles of porphyrin per fly
Recoveries (nmoles of porphyrin per fly), release ([9]; 24 h after feeding interrupted): 2.0 nmoles of porphyrin per fly
Recoveries (nmoles of porphyrin per fly), release ([9]; 48 h after feeding interrupted): 0.6 nmoles of porphyrin per fly
